This passage reports IC50 results from patent US12503438B2, “Compounds for the treatment of kinase-dependent disorders” (Exelixis, Inc., priority 2019, dated 2025).

pIC50: −log10 of the molar value.

Type in all cases: cell-based
The target in one test is Met (Homo sapiens, UniProt P08581). The experiment in a line: Met autophosphorylation ELISA in PC-3 cells. Further details: endogenous in cells; host or cells: PC-3 prostate cancer cells (ATCC #CRL-1435). The note with it: cellular activity, HGF-stimulated, phospho-Met ELISA, read-out: c-Met IC50. As for the experimental part: PC-3 prostate cancer cells (ATCC #CRL-1435) were seeded at 4×10^4 cells/well onto 24-well plates (Greiner #662165), in DMEM (Thermo Fisher #11995-040) containing 10% FBS (Thermo Fisher #26140-079), 1% MEM NEAA (Thermo Fisher #11140-050), 1% GlutaMax (Thermo Fisher #35050-061), and 1% Penicillin Streptomycin (Thermo Fisher #15140-122). PC-3 cells were incubated at 37° C., 5% CO2 for 24 h and then starved for 3 h in serum-free medium. Test compounds were serially diluted to produce an 8-point dose curve in fresh serum-free medium to a final concentration of 0.3% DMSO (vehicle) and added to the cells and incubated for 1 h. Cells were then stimulated with 100 ng/mL recombinant human HGF (R&D Systems #294-HG-250) for 10 min, washed with cold PBS and immediately lysed with 130 μL of cold 1× lysis buffer [20 mM Tris, 137 mM sodium chloride, 2 mM EDTA, 10% glycerol, 1% NP-40 alternative, 1 mM activated sodium orthovanadate, 1 mM PefaBloc SC (Sigma-Aldrich #11429868001), protease/phosphatase inhibitor tablet (Thermo Fisher #A32959)]. Lysates were clarified by centrifugation and 100 μL/well added into the PathScan phospho-Met (panTyr) Sandwich ELISA (Cell Signaling Technology #7333). Assay was performed according to manufacturer's instructions. Positive control wells (100% activity) contained HGF-stimulated, DMSO-treated cell lysates. Negative control wells (0% activity) contained HGF-stimulated, reference inhibitor-treated cell lysates. IC50 values were calculated by nonlinear regression analysis using a 4-parameter logistic curve fit in ActivityBase XE (IDBS).
In general terms: An ELISA detects its analyte on a solid surface through an enzyme-linked reagent.

A further test addresses KDR (Homo sapiens, UniProt P35968). The experiment in a line: KDR autophosphorylation ELISA in HUVEC cells. The note with it: cellular activity, VEGF165-stimulated, phospho-KDR ELISA. Further details: endogenous in cells; host or cells: HUVEC (Lonza #C2519A). As to the method:
Human umbilical vein endothelial cells or HUVEC (Lonza #C2519A) were seeded at 2×10^4 cells/well onto 96-well plates (Corning #3904), in EGM-2 growth medium (Lonza #CC-3162) containing 1% Penicillin Streptomycin (Thermo Fisher #15140-122). HUVEC cells were incubated at 37° C., 5% CO2 for 24 h and then starved for 24 h in serum-free EBM-2 basal medium (Lonza #CC-3156) containing 1% Penicillin Streptomycin. Test compounds were serially diluted to produce an 8-point dose curve in fresh serum-free medium to a final concentration of 0.3% DMSO (vehicle) and added to the cells and incubated for 1 h. Cells were then stimulated with 100 ng/mL recombinant human VEGF165 (R&D Systems #293-VE-500) for 5 min, washed with cold PBS, and immediately lysed with 130 μL of cold 1× lysis buffer [20 mM Tris, 137 mM sodium chloride, 2 mM EDTA, 10% glycerol, 1% NP-40 alternative, 1 mM activated sodium orthovanadate, 1 mM PefaBloc SC (Sigma-Aldrich #11429868001), protease/phosphatase inhibitor tablet (Thermo Fisher #A32959)]. Lysates were collected and 100 μL/well added into the human phospho-KDR DuoSet IC ELISA (R&D Systems #DYC1766-2). Assay was performed according to manufacturer's instructions and sample phospho-KDR concentrations were extrapolated using human phospho-KDR control (R&D Systems #841421) as a standard. Positive control wells (100% activity) contained VEGF165-stimulated, DMSO-treated cell lysates. Negative control wells (0% activity) contained non-stimulated cell lysates. IC50 values were calculated by nonlinear regression analysis using a 4-parameter logistic curve fit in ActivityBase XE (IDBS).

Another test concerns the target T1, AXL (Homo sapiens, UniProt P30530).
T1 construct: endogenous in cells; host or cells: A-172 glioblastoma cells (ATCC #CRL-1620)
T1 sequence (P30530 26-894): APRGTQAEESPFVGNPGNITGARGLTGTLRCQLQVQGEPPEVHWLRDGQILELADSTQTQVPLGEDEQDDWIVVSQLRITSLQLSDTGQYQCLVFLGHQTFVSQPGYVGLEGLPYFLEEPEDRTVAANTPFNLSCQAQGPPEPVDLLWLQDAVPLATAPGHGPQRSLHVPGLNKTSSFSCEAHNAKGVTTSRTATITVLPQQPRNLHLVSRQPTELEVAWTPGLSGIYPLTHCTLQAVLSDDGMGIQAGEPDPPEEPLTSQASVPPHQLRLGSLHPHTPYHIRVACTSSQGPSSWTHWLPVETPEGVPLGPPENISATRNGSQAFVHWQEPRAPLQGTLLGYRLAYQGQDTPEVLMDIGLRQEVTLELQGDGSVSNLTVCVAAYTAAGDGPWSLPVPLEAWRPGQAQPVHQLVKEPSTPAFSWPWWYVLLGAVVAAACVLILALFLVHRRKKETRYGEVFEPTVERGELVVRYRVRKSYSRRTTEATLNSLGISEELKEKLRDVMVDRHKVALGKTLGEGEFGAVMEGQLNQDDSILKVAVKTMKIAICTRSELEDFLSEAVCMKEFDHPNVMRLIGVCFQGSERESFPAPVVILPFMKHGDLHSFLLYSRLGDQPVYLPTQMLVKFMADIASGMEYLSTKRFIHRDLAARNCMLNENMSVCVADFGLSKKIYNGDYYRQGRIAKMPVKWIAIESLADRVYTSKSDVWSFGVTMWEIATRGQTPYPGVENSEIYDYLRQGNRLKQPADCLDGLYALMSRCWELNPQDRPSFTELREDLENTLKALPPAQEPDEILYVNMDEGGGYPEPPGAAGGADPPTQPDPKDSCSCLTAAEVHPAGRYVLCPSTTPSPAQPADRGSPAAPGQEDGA
The experiment in a line: AXL autophosphorylation ELISA in A-172 cells. To be noted: cellular activity, Gas6-stimulated, phospho-AXL ELISA. As for the experimental part:
A-172 glioblastoma cells (ATCC #CRL-1620) were seeded at 2.5×10^5 cells/well onto 24-well plates (Greiner #662165), in DMEM (Thermo Fisher #11995-040) containing 10% FBS (Thermo Fisher #26140-079), 1% MEM NEAA (Thermo Fisher #11140-050), 1% GlutaMax (Thermo Fisher #35050-061) and 1% Penicillin Streptomycin (Thermo Fisher #15140-122). A-172 cells were incubated at 37° C., 5% CO2 for 24 h and then starved for 24 h in serum-free medium. Test compounds were serially diluted to produce an 8-point dose curve in fresh serum-free medium to a final concentration of 0.3% DMSO (vehicle) and added to the cells and incubated for 1 h. Cells were then stimulated with 1 μg/mL recombinant human Gas6 (R&D Systems #885-GSB-500) for 15 min, washed with cold PBS and immediately lysed with 150 μL of cold 1× lysis buffer [20 mM Tris, 137 mM sodium chloride, 2 mM EDTA, 10% glycerol, 1% NP-40 alternative, 1 mM activated sodium orthovanadate, 1 mM PefaBloc SC (Sigma-Aldrich #11429868001), protease/phosphatase inhibitor tablet (Thermo Fisher #A32959)]. Lysates were collected and 100 μL/well added into the human phospho-AXL DuoSet IC ELISA (R&D Systems #DYC2228-2). Assay was performed according to manufacturer's instructions and sample phospho-AXL concentrations were extrapolated using human phospho-AXL control (R&D Systems #841645) as a standard. Positive control wells (100% activity) contained Gas6-stimulated, DMSO-treated cell lysates. Negative control wells (0% activity) contained Gas6-stimulated, reference inhibitor-treated cell lysates. IC50 values were calculated by nonlinear regression analysis using a 4-parameter logistic curve fit in ActivityBase XE (IDBS).

Sequence of Met (P08581 25-1390): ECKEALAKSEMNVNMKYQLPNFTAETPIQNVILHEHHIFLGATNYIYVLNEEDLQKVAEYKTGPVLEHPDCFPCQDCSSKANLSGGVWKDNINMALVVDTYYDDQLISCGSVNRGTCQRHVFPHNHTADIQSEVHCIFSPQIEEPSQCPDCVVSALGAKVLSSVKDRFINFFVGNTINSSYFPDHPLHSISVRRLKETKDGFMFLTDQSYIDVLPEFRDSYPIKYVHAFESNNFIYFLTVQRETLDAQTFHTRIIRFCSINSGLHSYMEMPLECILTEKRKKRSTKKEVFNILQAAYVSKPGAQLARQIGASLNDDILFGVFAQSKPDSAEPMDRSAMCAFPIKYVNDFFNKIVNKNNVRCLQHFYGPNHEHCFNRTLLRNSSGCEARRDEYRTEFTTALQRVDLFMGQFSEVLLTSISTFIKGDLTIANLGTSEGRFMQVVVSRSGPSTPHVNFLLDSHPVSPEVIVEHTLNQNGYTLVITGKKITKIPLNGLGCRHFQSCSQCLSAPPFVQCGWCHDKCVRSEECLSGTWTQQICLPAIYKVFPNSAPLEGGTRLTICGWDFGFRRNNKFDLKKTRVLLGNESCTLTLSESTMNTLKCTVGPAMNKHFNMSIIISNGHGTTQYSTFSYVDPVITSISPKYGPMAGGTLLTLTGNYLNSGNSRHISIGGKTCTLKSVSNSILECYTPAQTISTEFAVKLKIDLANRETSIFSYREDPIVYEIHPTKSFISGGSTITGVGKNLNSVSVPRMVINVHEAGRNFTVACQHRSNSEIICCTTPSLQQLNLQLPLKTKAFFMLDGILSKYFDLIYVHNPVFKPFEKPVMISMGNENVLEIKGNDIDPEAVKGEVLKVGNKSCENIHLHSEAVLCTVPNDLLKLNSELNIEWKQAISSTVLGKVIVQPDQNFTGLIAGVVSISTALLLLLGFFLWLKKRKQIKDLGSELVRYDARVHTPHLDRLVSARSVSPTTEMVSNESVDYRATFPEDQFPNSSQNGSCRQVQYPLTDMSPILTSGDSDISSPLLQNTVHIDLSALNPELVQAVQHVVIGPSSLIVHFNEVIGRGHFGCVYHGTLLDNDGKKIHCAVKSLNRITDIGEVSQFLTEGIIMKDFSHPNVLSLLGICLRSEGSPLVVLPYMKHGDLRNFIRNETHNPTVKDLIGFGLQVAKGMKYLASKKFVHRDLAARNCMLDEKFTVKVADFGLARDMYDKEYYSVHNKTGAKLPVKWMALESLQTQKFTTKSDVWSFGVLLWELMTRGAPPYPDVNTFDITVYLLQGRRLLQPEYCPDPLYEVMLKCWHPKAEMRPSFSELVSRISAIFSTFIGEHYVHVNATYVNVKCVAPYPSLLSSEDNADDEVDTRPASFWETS
Sequence of KDR (P35968 20-1356): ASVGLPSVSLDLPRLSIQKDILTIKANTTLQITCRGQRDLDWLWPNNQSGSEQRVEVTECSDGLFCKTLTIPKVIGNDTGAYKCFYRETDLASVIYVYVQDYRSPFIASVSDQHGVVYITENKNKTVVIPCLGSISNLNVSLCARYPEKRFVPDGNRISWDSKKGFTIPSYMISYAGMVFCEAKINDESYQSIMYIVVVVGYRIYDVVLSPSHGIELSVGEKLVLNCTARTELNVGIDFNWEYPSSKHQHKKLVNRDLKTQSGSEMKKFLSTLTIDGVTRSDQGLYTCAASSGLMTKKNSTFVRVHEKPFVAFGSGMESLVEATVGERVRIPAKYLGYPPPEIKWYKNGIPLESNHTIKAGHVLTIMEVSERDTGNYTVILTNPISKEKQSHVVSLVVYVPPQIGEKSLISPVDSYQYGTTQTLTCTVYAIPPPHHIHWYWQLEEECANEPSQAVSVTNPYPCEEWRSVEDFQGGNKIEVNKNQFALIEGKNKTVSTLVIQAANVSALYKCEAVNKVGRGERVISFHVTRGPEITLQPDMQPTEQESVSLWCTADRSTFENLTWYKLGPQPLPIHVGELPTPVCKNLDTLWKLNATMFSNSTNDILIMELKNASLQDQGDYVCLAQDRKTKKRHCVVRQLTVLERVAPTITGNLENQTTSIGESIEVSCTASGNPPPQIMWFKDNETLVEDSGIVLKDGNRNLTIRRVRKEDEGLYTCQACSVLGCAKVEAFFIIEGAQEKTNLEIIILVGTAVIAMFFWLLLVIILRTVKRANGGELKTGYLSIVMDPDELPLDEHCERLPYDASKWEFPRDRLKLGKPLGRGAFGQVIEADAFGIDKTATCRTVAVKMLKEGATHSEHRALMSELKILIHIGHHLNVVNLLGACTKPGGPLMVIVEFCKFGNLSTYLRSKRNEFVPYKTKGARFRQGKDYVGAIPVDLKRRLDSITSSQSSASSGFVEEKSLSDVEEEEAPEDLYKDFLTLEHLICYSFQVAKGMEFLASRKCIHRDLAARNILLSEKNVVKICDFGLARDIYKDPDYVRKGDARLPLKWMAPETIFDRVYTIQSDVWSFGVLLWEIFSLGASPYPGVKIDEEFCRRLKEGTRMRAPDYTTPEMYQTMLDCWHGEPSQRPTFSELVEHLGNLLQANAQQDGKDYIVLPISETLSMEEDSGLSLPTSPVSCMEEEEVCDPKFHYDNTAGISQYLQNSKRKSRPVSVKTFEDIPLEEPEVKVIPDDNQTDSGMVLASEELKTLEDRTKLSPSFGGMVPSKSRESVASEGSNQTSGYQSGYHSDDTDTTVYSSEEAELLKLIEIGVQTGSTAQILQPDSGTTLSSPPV

As usually defined, the pIC50 is −log10 of the IC50, conventionally taken in molar units. For `O=C(Nc1ccc(F)cc1)C1(C(=O)Nc2ccc(Oc3ccnc4cc(C5CCOC5)ccc34)cc2)CC1` (single isomer, unassigned) [Compound 89, 1-N′-(4-Fluorophenyl)-1-N-[4-[7-[oxolan-3-yl]quinolin-4-yl]oxyphenyl]cyclopropane-1,1-dicarboxamide], the pIC50 at Met was 7.00 to 8.00; against KDR it was < 6.52; on AXL it was < 6.52.
